Several values for one entry are separate records, joined by “and”; a condition that tells them apart may be missing. Equal values may be shown once.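 These data come from cells grown in 96-well plates and exposed to compound for 48 hours at five concentrations. GI50: concentration for 50% inhibition of growth. Definition used: TGI = concentration required for complete inhibition of growth.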 Bounds are passed on as bounds.

Common to all, as to assay: growth of human tumour cells (NCI), 48 h
Experiment [1] concerns OVCAR-3 ovarian.
Experiment [2] relates to SNB-75 CNS.
The test system of experiment [3] is KM12 colon.
The subject of experiment [4] is SNB-19 CNS.
Experiment [5] deals with NCI-H226 lung.
Experiment [6] has as its system DMS 273 small cell lung.
For experiment [7], the system named is KM20L2 colon.
For experiment [8], the system named is HOP-18 NSCLC.
Experiment [9] concerns SF-295 CNS.
Experiment [10] concerns ACHN renal.
The test system of experiment [11] is T-47D breast.

For the compound `CC1=CC(O)C(O)C2(C)C1CC1OC(=O)C(O)C3C(C)C(O)C4(O)OCC13C42` (configuration not stated), the TGI in [1] is 121 µM; in [2], 33.3 µM; in [3] it was 389 µM; in experiment [4], 91.7 µM; in experiment [5], 243 µM; in experiment [6], greater than 567 µM. Moreover, the TGI in experiment [7] is 233 µM; in [8] it was greater than 625 µM; in experiment [9], 364 µM.
Take `COc1cc(C2C3=C(CCC3=O)Oc3cc4c(cc32)OCO4)cc(OC)c1OC` (configuration not stated): the TGI in experiment [1] is 0.381 µM; in [2] it was 0.481 µM; in [4] it was greater than 100 µM; in [10], 62.3 µM; in experiment [6] it was greater than 100 µM; in [7], 0.664 µM. Besides, the values for the TGI in experiment [8] and in experiment [9] were greater than 100 µM and 0.532 µM, respectively.
`Cc1csc2c1C(=O)c1ccsc1C2=O`: the TGI in experiment [1] came out at 5.44 µM; in experiment [2] it was 3.51 µM; in [3], 11 µM; in experiment [4], 9.98 µM; in experiment [5], 23.4 µM; in experiment [10] it was 10.7 µM. The TGI worked out at 4.45 µM in experiment [6]; 17.6 µM in [7]; 4.99 µM in experiment [11]; 3.73 µM in experiment [8]; 2.99 µM in experiment [9].
Turning to `CCOc1ccc2[nH]c3c(C)c4cc[n+](C)cc4c(C)c3c2c1`, the TGI is 22.5 µM and 51.7 µM in [1]; 0.452 µM and 0.291 µM in [2]; 14.4 µM and 21.6 µM in experiment [3]; 1.26 µM and 3.37 µM in [4]; 0.965 µM and 2.88 µM in experiment [5]; greater than 100 µM in [10]. Further, the TGI in experiment [6] is 6.33 µM and 13.8 µM; in experiment [7], 47.8 µM and > 96.8 µM; in experiment [8], 33.6 µM and 49.2 µM; in experiment [9], 0.672 µM and 1.55 µM. Moreover, the GI50 in [2] is 0.18 µM and 0.0795 µM; in [4] it was 0.297 µM and 0.707 µM; in experiment [10], 6.04 µM and 17.5 µM; in [6] it was 0.651 µM and 1.33 µM.
On to `O=c1[nH]c(=O)n(C2OC(COP(=O)(O)OP(=O)(O)O)C(O)C2O)cc1F` (configuration not stated), for which the TGI was greater than 50 µM in [1]; greater than 50 µM in experiment [2]; greater than 50 µM in experiment [3]; greater than 50 µM in [4]; 28.6 µM in experiment [5]; greater than 44.7 µM in [10]. In addition, the TGI in [6], in experiment [7], in experiment [8] and in experiment [9] was greater than 50 µM each time.

Values taken from PubChem BioAssay (NCI).
